Measured values taken from US7968570B2, “Isoindolone compounds and their use as metabotropic glutamate receptor potentiators” (AstraZeneca AB, priority 2004, dated 2011).

Molecular target: T1, human mGluR2 receptor (Homo sapiens, UniProt Q14416)
T1 construct: expressed in transfected cells
Experiment: [35S]-GTPγS binding assay of mGluR2 receptor activation
Format: biochemical
Details: not given
Protocol: A [^35S]-GTPγS binding assay was used to functionally assay mGluR2 receptor activation. The allosteric activator activity of compounds at the human mGluR2 receptor were measured using a [^35S]-GTPγS binding assay with membranes prepared from CHO cells which stably express the human mGluR2. The assay is based upon the principle that agonists bind to G-protein coupled receptors to stimulate GDP-GTP exchange at the G-protein. Since [^35S]-GTPγS is a non-hydrolyzable GTP analog, it can be used to provide an index of GDP-GTP exchange and, thus, receptor activation. The GTPγS binding assay therefore provides a quantitative measure of receptor activation.
Membranes were prepared from CHO cells stably transfected with human mGluR2. Membranes (30 μg protein) were incubated with test compound (3 nM to 300 μM) for 15 minutes at room temperature prior to the addition of 1 μM glutamate, and incubated for 30 min at 30° C. in 500 μl assay buffer (20 mM HEPES, 100 mM NaCl, 10 mM MgCl2), containing 30 μM GDP and 0.1 nM [^35S]-GTPγS (1250 Ci/mmol). Reactions were carried out in triplicate in 2 ml polypropylene 96-well plates. Reactions were terminated by vacuum filtration using a Packard 96-well harvester and Unifilter-96, GF/B filter microplates. The filter plates were washed 4×1.5 ml with ice-cold wash buffer (10 mM sodium phosphate buffer, pH 7.4). The filter plates were dried and 35 μl of scintillation fluid (Microscint 20) was added to each well. The amount of radioactivity bound was determined by counting plates on the Packard TopCount. Data was analyzed using GraphPad Prism, and EC50 and Emax values (relative to the maximum glutamate effect) were calculated using non-linear regression.

T1 sequence (Q14416 19-872): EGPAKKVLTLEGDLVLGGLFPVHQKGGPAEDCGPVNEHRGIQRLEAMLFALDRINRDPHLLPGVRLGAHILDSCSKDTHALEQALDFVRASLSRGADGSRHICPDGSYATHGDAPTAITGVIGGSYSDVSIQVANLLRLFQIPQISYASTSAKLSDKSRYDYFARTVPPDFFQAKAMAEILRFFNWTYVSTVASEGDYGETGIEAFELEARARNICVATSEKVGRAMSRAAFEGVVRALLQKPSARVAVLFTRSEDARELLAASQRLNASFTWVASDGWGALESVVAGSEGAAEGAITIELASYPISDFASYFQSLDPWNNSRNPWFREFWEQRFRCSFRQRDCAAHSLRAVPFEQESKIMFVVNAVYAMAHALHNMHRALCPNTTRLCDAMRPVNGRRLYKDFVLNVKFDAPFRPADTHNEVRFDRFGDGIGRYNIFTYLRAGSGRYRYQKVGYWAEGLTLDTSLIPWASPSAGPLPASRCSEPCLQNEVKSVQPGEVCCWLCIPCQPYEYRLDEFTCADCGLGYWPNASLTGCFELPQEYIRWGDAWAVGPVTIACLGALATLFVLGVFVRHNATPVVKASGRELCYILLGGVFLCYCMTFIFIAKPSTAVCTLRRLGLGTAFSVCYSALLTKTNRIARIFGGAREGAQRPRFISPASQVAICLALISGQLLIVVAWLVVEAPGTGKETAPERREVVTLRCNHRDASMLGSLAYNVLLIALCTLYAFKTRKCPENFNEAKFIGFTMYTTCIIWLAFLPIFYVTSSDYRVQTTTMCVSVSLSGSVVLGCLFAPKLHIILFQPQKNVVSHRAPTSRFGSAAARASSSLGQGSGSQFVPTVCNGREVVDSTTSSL

Compound | EC50 [nM]
CNCc1nnc(-c2cc(C)c3c(c2)CN(Cc2ccc(OC(F)(F)F)cc2)C3=O)o1 [Example 181, 7-Methyl-5-(5-methylaminomethyl-[1,3,4]oxadiazol-2-yl)-2-(4-trifluorometh-oxy-benzyl)-2,3-dihydro-isoindol-1-one] | 2120
Cc1cc(-c2nnc(CN(C)C)o2)cc2c1C(=O)N(Cc1ccc(OC(F)(F)F)cc1)C2 [Example 175, 5-(5-Dimethylamino-methyl-[1,3,4]oxadiazol-2-yl)-7-methyl-2-(4-trifluorometh-oxy-benzyl)-2,3-dihydro-isoindol-1-one] | 6400
Cc1cc(CN2CCN(c3ccccn3)CC2)cc2c1C(=O)N(Cc1ccc(OC(F)(F)F)cc1)C2 [Example 167, 7-Methyl-5-(4-pyridin-2-yl-piperazin-1-ylmethyl)-2-(4-trifluorometh-oxy-benzyl)-2,3-dihydro-isoindol-1-one] | 140
Cc1cc(CC2CCN(C(C)C)CC2)cc2c1C(=O)N(Cc1ccc(OC(F)(F)F)cc1)C2 [Example 174, 5-(1-isopropyl-piperidin-4-ylmethyl)-7-methyl-2-(4-trifluorometh-oxy-benzyl)-2,3-dihydro-isoindol-1-one] | 740

Same assay, conditions: membranes from CHO cells stably expressing human mGluR2; 1 μM glutamate

Compound | EC50 [nM]
Cc1cc(N2CCCN3CCCCC3C2)cc2c1C(=O)N(Cc1ccc(OC(F)(F)F)cc1)C2 (stereo not drawn) [Example 122, 7-Methyl-5-(octahydropyrido [1,2-a][1,4]diazepin-2-yl)-2-(4-trifluoromethoxy-benzyl)-2,3-dihydroisoindol-1-one] | 3550
Cc1cc(CN2CCC(N3CCCCC3)CC2)cc2c1C(=O)N(Cc1ccc(OC(F)(F)F)cc1)C2 [Example 49, 5-[1, 4″]Bipiperidinyl-1″-ylmethyl-7-methyl-2-(4-trifluoromethoxy-benzyl)-2,3-dihydro-isoindol-1-one] | 3250
Cc1cc(N2CCN(C)CC2)cc2c1C(=O)N(Cc1ccc(Cl)cc1)C2 [Example 117, 2-(4-chlorobenzyl)-7-methyl-5-(4-methylpiperazin-1-yl)-2,3-di-hydroisoindol-1-one] | 1450
Cc1ccc(CN2Cc3cc(-c4cccnc4)ccc3C2=O)cc1 [Example 94, 2-(4-Methylbenzyl)-5-pyridin-3-yl-2,3-dihydroisondol-1-one] | 2760
Cc1cc(C2CCN(C)CC2)cc2c1C(=O)N(Cc1ccc(OC(F)(F)F)cc1)C2 [Example 159, 7-Methyl-5-(1-methyl-piperidin-4-yl)-2-(4-trifluoromethoxy-benzyl)-2,3-dihydro-isoindol-1-one] | 1280
Cc1cc(CN2CC=CC2)cc2c1C(=O)N(Cc1ccc(OC(F)(F)F)cc1)C2 [Example 39, 5-(2,5-Dihydro-pyrrol-1-ylmethyl)-7-methyl-2-(4-trifluoromethoxy-benzyl)-2,3-dihydro-isoindol-1-one] | 2400
O=C1c2ccc(N3CCC4(CC3)C(=O)N(Cc3ccc(F)cc3)CN4c3ccccc3)cc2CN1Cc1ccc(OC(F)(F)F)cc1 [Example 153, 3-(4-Fluoro-benzyl)-8-[1-oxo-2-(4-trifluoromethoxy-benzyl)-2,3-dihydro-1H-isoindol-5-yl]-1-phenyl-1,3,8-triaza-spiro[4.5] decan-4-one] | 2640
CCCN1CCN(c2ccc3c(c2)CN(Cc2ccc(OC(F)(F)F)cc2)C3=O)CC1 [Example 146, 5-(4-Propyl-piperazin-1-yl)-2-(4-tri-fluoromethoxy-benzyl)-2,3-dihydro-isoindol-1-one] | 4420
CN(C)C1CCN(c2cc(Cl)c3c(c2)CN(Cc2ccc(Cl)cc2)C3=O)C1 (stereo not drawn) [Example 135, 7-Chloro-2-(4-chloro-benzyl)-5-(3-dimethylamino-pyrolidin-1-yl)-2,3-dihydro-isoindol-1-one] | 610
Cc1cc(N2CCN3CCCCC3C2)cc2c1C(=O)N(Cc1ccc(Cl)cc1)C2 (stereo not drawn) [Example 121] | 1230
CCN1CCN(c2cc(C)c3c(c2)CN(Cc2ccc(OC(F)(F)F)cc2)C3=O)CC1 [Example 112, 5-(4-Ethylpiperazin-1-yl)-7-methyl-2-(4-trifluoromethoxy-benzyl)-2,3-dihydroisoindol-1-one] | 680
COc1cc(Br)cc2c1C(=O)N(Cc1ccc(Cl)cc1)C2 [Example 32, 5-Bromo-2-(4-chloro-benzyl)-7-methoxy-2,3-dihydro-isoindol-1-one] | 2800
O=C(CN1CCN(c2ccc3c(c2)CN(Cc2ccc(OC(F)(F)F)cc2)C3=O)CC1)N1CCCC1 [Example 148, 5-[4-(2-Oxo-2-pyrrolidin-1-yl-ethyl)-piperazin-1-yl]-2-(4-trifluoromethoxy-benzyl)-2,3-dihydro-isoindol-1-one] | 6780
O=C1c2ccc(N3CCN(c4ccncc4)CC3)cc2CN1Cc1ccc(OC(F)(F)F)cc1 [Example 149, 5-(4-Pyridin-4-yl-piperazin-1-yl)-2-(4-trifluoromethoxy-benzyl)-2,3-dihydro isoindol-1-one] | 9830

Second part, the compound after the results:

EC50 [nM] | Compound
410 | Cc1cc(CNC2Cc3ccccc3C2)cc2c1C(=O)N(Cc1ccc(OC(F)(F)F)cc1)C2 [Example 48, 5-(Indan-2-ylaminomethyl)-7-methyl-2-(4-trifluoromethoxy-benzyl)-2,3-dihydro-isoindol-1-one]
400 | COc1cc(-c2ccncc2)cc2c1C(=O)N(Cc1ccc(OC(F)(F)F)cc1)C2 [Example 99, 7-Methoxy-5-pyridin-4-yl-2-(4-trifluoromethoxy-benzyl)-2,3-dihydroisoindol-1-one]
50 | Cc1cc(CN2CCN(c3ccccn3)CC2)cc2c1C(=O)N(Cc1ccc(OC(F)(F)F)cc1)C2 [Example 43, 7-Methyl-5-(4-pyridin-2-yl-piperazin-1-ylmethyl)-2-(4-trifluoromethoxy-benzyl)-2,3-dihydro-isoindol-1-one]
210 | COCCN1CCN(c2cc(Cl)c3c(c2)CN(Cc2ccc(OC(F)(F)F)cc2)C3=O)CC1 [Example 154, 7-Chloro-5-[4-(2-methoxy-ethyl)-piperazin-1-yl]-2-(4-trifluoromethoxy-benzyl)-2,3-dihydro-isoindol-1-one]
70 | Cc1cc(CN(C)Cc2ccccc2)cc2c1C(=O)N(Cc1ccc(OC(F)(F)F)cc1)C2 [compound 35, 5-[(Benzylmethylamino)-methyl]-7-methyl-2-(4-trifluoromethoxy-benzyl)-2,3-dihydro-isoindol-1-one]
220 | COc1cc(-c2cccnc2)cc2c1C(=O)N(Cc1ccc(OC(F)(F)F)cc1)C2 [Example 100, 7-Methoxy-5-pyridin-3-yl-2-(4-trifluoromethoxy-benzyl)-2,3-dihydroisoindol-1-one]
300 | Cc1cc(-c2ccncc2)cc2c1C(=O)N(Cc1ccc(Cl)cc1)C2 [Example 97, 2-(4-chlorobenzyl)-7-methyl-5-pyridin-4-yl-2,3-dihydroisoindol-1-one]
40 | Cc1cc(-c2ccncc2)cc2c1C(=O)N(Cc1ccc(Oc3ccccc3)cc1)C2 [Example 103, 7-Methyl-2-(4-phenoxy-benzyl)-5-pyridin-4-yl-2,3-dihydro-isoindol-1-one]
320 | O=C(CN1CCN(c2cc(Cl)c3c(c2)CN(Cc2ccc(OC(F)(F)F)cc2)C3=O)CC1)N1CCCC1 [Example 156, 7-Chloro-5-[4-(2-oxo-2-pyrrolidin-1-yl-ethyl)-piperazin-1-yl]-2-(4-trifluoromethoxy-benzyl)-2,3-dihydro-isoindol-1-one]
